From patent publication US20240189287A1, “PERIPHERALLY RESTRICTED CB1 RECEPTOR BLOCKERS AND USES THEREOF” (BIONANOSIM (BNS) LTD, priority 2021, published 2024)
pIC50: −log10 of the molar value. Entries after “also recorded” stand apart in the source; their conditions may differ. Where two headings read alike, the source gives them in different places.

Tests used:
[1] = tested on: Salmonella typhimurium (TA98, TA100); settings: for increase in reversion over the negative control: TA98 and TA100, with and without S9
C57Bl/6J mice = experiment: CNS-mediated hyperactivity, locomotor activity (Promethion); type: in vivo; settings: wild-type male C57Bl/6J mice
Description: (§1) Locomotor activity: Locomotor activity was quantified by the number of disruptions of infrared XYZ beam arrays with a beam spacing of 0.25 cm in the Promethion High-Definition Behavioral Phenotyping System (Sable Instruments, Inc., Las Vegas, NV, USA).
The ability of BNS822 and BNS808 to induce CNS-mediated hyperactivity was further evaluated in a mouse model, using rimonabant (a brain penetrant CB1 receptor blocker) as a positive control. Mice (wild-type male C57Bl/6J) received a single dose of rimonabant (10 mg/kg IP), BNS822 (20 mg/kg PO) BNS 808 (1, 10 mg/kg PO) or vehicle; ambulatory activity was measured by the Promethion Metabolic System (Sable Instruments, Inc). In the same experimental scheme, BNS822, BNS808 and rimonabant were further studied regarding the potential to inhibit the hypomotility-induced by a CB1 receptor agonist, HU210, after a single dose of rimonabant (10 mg/kg IP), BNS822 (20 mg/kg PO) BNS808 (1, 10 mg/kg PO) or vehicle and a single dose of HU210 (30 μg/kg IP) 30 min after.

[2] = Tissue distribution: brain, plasma and liver levels after oral dosing; type: in vivo, C57BL/6J mice
Method: Tissue distribution and pharmacokinetics: Tissue levels of antagonist: 3 male C57BL/6J mice (7-9 weeks, PO group) were used in this study. Mice were fasted prior to administration of test article and had access to food 4 hours post dosing. Appropriate amount of test article was accurately weighted and mixed with the appropriate volume of vehicle to get a clear oral solution. The formulation was prepared on the day of dosing, and mice were dosed via oral gavage up to 4 hr after formulation was prepared. After 1 hour, mice were scarified and about 200 μL blood was collected from cardiac puncture followed by plasma preparation. Brain and liver were removed and further processed. Dose formulation and sample analysis was performed by LC-MS/MS method.
The peripherality of selected BB8 conjugates (BNS) was evaluated in vivo measuring their respective brain, plasma, and liver levels 1 hr following 10 mg/kg oral administration.

[3] = tested on: DIO (Diet-Induced-Obese) mice; experiment: In vivo efficacy study in Diet Induced Obesity (DIO) model; parameters: species or system C57BL/6J mice
Method: In vivo efficacy study in Diet Induced Obesity (DIO) model: Male C57BL/6J mice were kept on a high fat diet for 24 weeks. […] Thereafter, metabolic assessment was performed in order to evaluate the efficacy of the treatment. The efficacy was evaluated by measurements of the following parameters: • 1. Body weight and food intake, • 2. Total energy expenditure (TEE) and respiratory quotient (RQ). • 3. Fat and Carbohydrate oxidation (FO and CHO, respectively), • 4. Total ambulation, • 5. Glucose homeostasis, • 6. Hepatic Steatosis and Liver Injury, • 7. Lipid profile, • 8. Kidney function.
Animals: The experimental protocol used is approved by the Institutional Animal Care and Use Committee of the Hebrew University. Male, 25 weeks old, C57BL/6J mice were purchased from Jackson laboratories. Mice were maintained under a 12-h light/dark cycle and fed ad libitum. To maintain diet-induced obesity, C57BL/6J mice were fed with high-fat diet (HFD) (60% of calories from fat, 20% from protein, and 20% from carbohydrates; Research Diet, D12492) for overall 30 weeks.
[…] Body weight and food intake were monitored daily. Total body fat and lean masses were determined by EchoMRI-100H™ (Echo Medical Systems LLC, Houston, TX, USA). 24 h urine was collected 2-4 days before euthanasia using mouse metabolic cages (CCS2000 Chiller System, Hatteras Instruments, NC, USA). At the end of the observation period, mice were euthanized by a cervical dislocation under anesthesia, the kidneys, liver, brain, spleen, fat, and pancreas were removed, and samples were fixed in buffered 4% formalin (for histopathological analysis) or snap frozen (for biochemistry analysis). Trunk blood was collected for determining the biochemical parameters.
Multi-parameter metabolic assessment: Metabolic profile of the mice was assessed by using the Promethion High-Definition Behavioral Phenotyping System
(Sable Instruments, Inc., Las Vegas, NV, USA). Data acquisition and instrument control were performed using MetaScreen software version 2.2.18.0, and the obtained raw data were processed using ExpeData version 1.8.4 using an analysis script detailing all aspects of data transformation. Mice with free access to food and water were subjected to a standard 12 hr light/12 hr dark cycle, which consisted of 48 hr acclimation period followed by 24 hr of sampling. Respiratory gases were measured by using the GA-3 gas analyzer (Sable Systems, Inc., Las Vegas, NV, USA) using a pull-mode, negative-pressure system. Air flow was measured and controlled by FR-8 (Sable Systems, Inc., Las Vegas, NV, USA), with a set flow rate of 2000 mL/min. Water vapor was continuously measured and its dilution effect on O2 and CO2 was mathematically compensated. Effective mass was calculated by [body mass]0.75. Fat oxidation (FO) and carbohydrate oxidation (CHO) were calculated as FO=1.69×VO2−1.69×VCO2 and CHO=4.57×VCO2−3.23×VO2 and expressed as g/d/kg^eff.Mass.
as §1
Glucose tolerance (ipGTT) test and insulin sensitivity tests (ipIST): Mice that fasted overnight were injected with glucose (1.5 g/kg, IP), followed by a tail blood collection at 0, 15, 30, 45, 60, 90, 120 min. Blood glucose levels were determined using the Elite glucometer (Bayer, Pittsburgh, PA). Two days later, mice were fasted for 6 hr before receiving insulin (0.75 U/kg, IP; Eli Lilly, DC, USA or Actrapid® vial, novo nordisk A/S, Denmark), and blood glucose levels were determined at the same intervals.
Creatinine clearance was calculated using urine and serum creatinine levels (CCr mL/h=Urine creatinine mg/dL×Urine volume/Serum creatinine mg/dL×24 hr). Fasting blood glucose was measured using the Elite glucometer (Bayer, Pittsburgh, PA). […]

CYP 1A2 = CYP 1A2 (Homo sapiens (Human), UniProt P05177); experiment: CYP inhibition in human liver microsomes; type: in vitro ADME
Method: To evaluate the in vitro CYP inhibition of BNS808 and BNS822, the compounds were tested in human liver microsomes that are rich in drug metabolizing enzymes, including CYPs 1A2, 2C9, 2C19, 2D6, 3A4.

[4] = male, C57BL/6J, mouse, in vivo, po, 10 mg/kg

Sequence of CYP 1A2 (P05177 whole entry): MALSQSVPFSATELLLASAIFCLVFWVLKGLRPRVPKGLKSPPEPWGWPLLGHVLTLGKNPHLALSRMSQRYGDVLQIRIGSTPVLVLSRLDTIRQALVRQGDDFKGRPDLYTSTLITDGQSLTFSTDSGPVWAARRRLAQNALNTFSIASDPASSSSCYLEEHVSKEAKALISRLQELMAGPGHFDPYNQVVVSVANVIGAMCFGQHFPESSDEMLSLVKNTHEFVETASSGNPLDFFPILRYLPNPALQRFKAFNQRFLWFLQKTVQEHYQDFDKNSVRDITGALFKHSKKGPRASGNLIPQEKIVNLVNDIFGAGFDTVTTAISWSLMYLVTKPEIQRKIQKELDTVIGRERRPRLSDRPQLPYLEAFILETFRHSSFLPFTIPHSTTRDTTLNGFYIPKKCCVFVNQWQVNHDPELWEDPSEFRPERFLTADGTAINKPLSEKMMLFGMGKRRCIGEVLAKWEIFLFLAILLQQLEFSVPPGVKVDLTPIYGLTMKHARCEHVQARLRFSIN

In the case of `Cc1ccc(C)c(OCCCC(C)(C)C(=O)NC2CCCOc3c2nn(-c2ccccc2Cl)c3-c2ccc(Cl)cc2)c1` (stereo not shown) [BNS822, N-[2-(2-chlorophenyl)-3-(4-chlorophenyl)-5,6,7,8-tetrahydrooxepino[3,2-c]pyrazol-8-yl]-5-(2,5-dimethylphenoxy)-2,2-dimethyl-pentanamide], the “toxicity on AMES strains” value [1] was “no toxicity”, the “AMES result (positive/negative)” value ([1]; TA98, S9 no) was “negative” and the “AMES result (positive/negative)” value ([1]; TA98, S9 yes) was “negative”. For the same compound, the “increase in reversion over the negative control” value [1] was less than 2 fold, the “AMES result (positive/negative)” value ([1]; TA100, S9 no) was “negative” and the “AMES result (positive/negative)” value ([1]; TA100, S9 yes) was “negative”. For the same compound, the “locomotor activity (CNS-mediated hyperactivity)” value (C57Bl/6J mice; single dose 20 mg/kg PO) was “no locomotor effects”, the Kp at 1 h [2, 4] was less than 0.02 and the concentration at 1 h [2, 4] was 1.34 ng/g. For the same compound, the Brain/Plasma ratio ([2]; male, C57BL/6J, mouse, in vivo, po, 10 mg/kg, 1 h) was less than 0.02, the weight loss ([3]; 20 mg/kg continued administration, DIO mice) was 20% and the body weight ([3]; 20 mg/kg/day PO, DIO mice) was “significantly reduced”. The food intake ([3]; 20 mg/kg/day PO, DIO mice) was “significant decrease”, the “circulating fed insulin (plasma) levels” value ([3]; 20 mg/kg/day PO, DIO/HFD mice) was “significantly lower; also recorded: significant reductions” and the “glucose levels in fed and fasting conditions” value ([3]; 20 mg/kg/day PO, DIO/HFD mice) was “no change; also recorded: no significant changes”. The “glucose tolerance (GTT, AUC)” value ([3]; 20 mg/kg/day PO, DIO/HFD mice) was “improved; also recorded: significant reductions”, the “insulin sensitivity (ITT)” value ([3]; 20 mg/kg/day PO, DIO/HFD mice) was “no improvement; also recorded: no significant changes” and the ALT levels ([3]; 20 mg/kg/day PO, HFD mice) was “Significant reductions”. The “fat vacuoles deposition in the liver” value ([3]; 20 mg/kg/day PO, HFD mice) was “reduction”, the “liver TG content” value ([3]; 20 mg/kg/day PO, HFD mice) was “Significant reductions” and the liver cholesterol ([3]; 20 mg/kg/day PO, HFD mice) was “not”. The IC50 (CYP 1A2; human liver microsomes, isozyme order of b227, read-out: IC50 (μM) CYP 1A2) was greater than 50 µM.

With `O=S(=O)(NC1CCCOc2c1nn(-c1ccccc1Cl)c2-c1ccc(Cl)cc1)c1ccc(Cl)cc1` (stereo not shown) [BNS808, 4-chloro-N-[2-(2-chlorophenyl)-3-(4-chlorophenyl)-5,6,7,8-tetrahydrooxepino[3,2-c]pyrazol-8-yl]benzenesulfonamide] the “toxicity on AMES strains” value [1] was “no toxicity”, the “AMES result (positive/negative)” value ([1]; TA98, S9 no) was “negative” and the “AMES result (positive/negative)” value ([1]; TA98, S9 yes) was “negative”. For the same compound, the “increase in reversion over the negative control” value [1] was less than 2 fold, the “AMES result (positive/negative)” value ([1]; TA100, S9 no) was “negative” and the “AMES result (positive/negative)” value ([1]; TA100, S9 yes) was “negative”. For the same compound, the “locomotor activity (CNS-mediated hyperactivity)” value (C57Bl/6J mice; single dose 1, 10 mg/kg PO) was “no locomotor effects”, the Liver/Plasma ratio ([2]; 1 h post 10 mg/kg oral administration, C57BL/6J male mice) was 13.0 and the Kp at 1 h ([2]; mouse, in vivo, 1 h post 10 mg/kg oral administration, C57BL/6J male mice, read-out: Brain/Plasma ratio) was 1.07. The “reduction of the body weight” value ([3]; 1 mg/kg daily PO, DIO mice on HFD, after 24 days) was roughly 15%, the ambulatory activity ([3]; 1 mg/kg/day continued PO, DIO mice) was “did not affect” and the pIC50 (CYP 1A2) was less than 4.30.
